{
  "source": "patent US20250332178A1",
  "about": "“METHODS OF TREATING MYCOBACTERIAL INFECTIONS USING TETRACYCLINE COMPOUNDS” (priority 2018, published 2025)",
  "key": {"M. arupense": {"test_system": "M. arupense", "assay": "MIC (CLSI broth dilution), slow-growing NTM isolates", "type": "cell-based", "details": "isolate 11, Other; read-out: MIC"}, "M. avium": {"test_system": "M. avium", "assay": "MIC (CLSI broth dilution), slow-growing NTM isolates", "type": "cell-based", "details": "Mycobacterium avium, read-out: MIC"}, "M. chelonae": {"test_system": "M. chelonae", "assay": "MIC (CLSI broth dilution), RGM isolates", "type": "cell-based", "details": "Mycobacteroides chelonae, read-out: MIC"}, "[1]": {"test_system": "rapid-growing mycobacteria (RGM) isolates", "assay": "MIC (CLSI broth dilution), all RGM isolates", "type": "cell-based, nontuberculous mycobacteria", "details": "all 50 RGM isolates"}, "M. intracellulare": {"test_system": "M. intracellulare", "assay": "MIC (CLSI broth dilution), slow-growing NTM isolates", "type": "cell-based", "details": "Mycobacterium intracellulare, read-out: MIC"}, "M. fortuitum group": {"test_system": "M. fortuitum group", "assay": "MIC (CLSI broth dilution), RGM isolates", "type": "cell-based", "details": "Mycolicibacterium fortuitum, read-out: MIC"}, "M. simiae": {"test_system": "M. simiae", "assay": "MIC (CLSI broth dilution), slow-growing NTM isolates", "type": "cell-based", "details": "read-out: MIC"}, "M. smegmatis group": {"test_system": "M. smegmatis group", "assay": "MIC (CLSI broth dilution), RGM isolates", "type": "cell-based", "details": "Mycolicibacterium smegmatis, read-out: MIC"}, "M. abscessus complex": {"test_system": "M. abscessus complex", "assay": "MIC (CLSI broth dilution), RGM isolates", "type": "cell-based", "details": "Mycobacteroides abscessus, read-out: MIC"}, "M. mucogenium group": {"test_system": "M. mucogenium group", "assay": "MIC (CLSI broth dilution), RGM isolates", "type": "cell-based", "details": "read-out: MIC"}, "M. chimaera": {"test_system": "M. chimaera", "assay": "MIC (CLSI broth dilution), slow-growing NTM isolates", "type": "cell-based", "details": "read-out: MIC"}, "M. immunogenum group": {"test_system": "M. immunogenum group", "assay": "MIC (CLSI broth dilution), RGM isolates", "type": "cell-based", "details": "M. immunogenum, read-out: MIC"}, "[2]": {"test_system": "slow-growing NTM isolates", "assay": "MIC (CLSI broth dilution), all slow-growing NTM isolates", "type": "cell-based, nontuberculous mycobacteria", "details": "all slow-growing NTM isolates"}, "M. abscessus": {"test_system": "M. abscessus", "details": "strains of M. abscessus; Wallace et al.; cited from earlier work"}},
  "note": "Where two headings read alike, the source gives them in different places.",
  "data": [
    {"smiles": "COc1c(N2C[C@@H]3CCCN[C@@H]3C2)c(F)cc2c(=O)c(C(=O)O)cn(C3CC3)c12", "note": "[MXF, moxifloxacin]", "values": [
      {"measurement": "MIC", "setting": "M. arupense", "result": "> 16", "unit": "µg/mL"},
      {"measurement": "MIC", "setting": "M. avium; isolate 1, MAC", "result": 2, "unit": "µg/mL"},
      {"measurement": "MIC", "setting": "M. avium; isolate 2, MAC", "result": 0.25, "unit": "µg/mL"},
      {"measurement": "MIC", "setting": "M. avium; isolate 3, MAC", "result": 4, "unit": "µg/mL"},
      {"measurement": "MIC", "setting": "M. chelonae; isolate 18, M. chelonae", "result": 4, "unit": "µg/mL"},
      {"measurement": "MIC", "setting": "M. chelonae; isolate 19, M. chelonae", "result": 8, "unit": "µg/mL"},
      {"measurement": "MIC", "setting": "M. chelonae; isolate 20, M. chelonae", "result": 2, "unit": "µg/mL"},
      {"measurement": "MIC", "setting": "M. chelonae; isolate 21, M. chelonae", "result": "> 16", "unit": "µg/mL"},
      {"measurement": "MIC", "setting": "M. chelonae; isolate 22, M. chelonae", "result": 2, "unit": "µg/mL"},
      {"measurement": "MIC50", "setting": "[1]; read-out: MIC50", "result": 2, "unit": "µg/mL"},
      {"measurement": "MIC90", "setting": "[1]; read-out: MIC90", "result": 16, "unit": "µg/mL"},
      {"measurement": "MIC", "setting": "M. intracellulare; isolate 6, MAC", "result": 2, "unit": "µg/mL"},
      {"measurement": "MIC", "setting": "M. intracellulare; isolate 7, MAC", "result": 1, "unit": "µg/mL"},
      {"measurement": "MIC", "setting": "M. intracellulare; isolate 8, MAC", "result": 2, "unit": "µg/mL"},
      {"measurement": "MIC", "setting": "M. intracellulare; isolate 9, MAC", "result": 2, "unit": "µg/mL"},
      {"measurement": "MIC", "setting": "M. intracellulare; isolate 10, MAC", "result": 0.5, "unit": "µg/mL"},
      {"measurement": "MIC", "setting": "M. fortuitum group; isolate 23, M. fortuitum group, M. fortuitum", "result": "≤ 0.06", "unit": "µg/mL"},
      {"measurement": "MIC", "setting": "M. fortuitum group; isolate 24, M. fortuitum group, M. fortuitum", "result": "≤ 0.06", "unit": "µg/mL"},
      {"measurement": "MIC", "setting": "M. fortuitum group; isolate 25, M. fortuitum group, M. fortuitum", "result": "≤ 0.06", "unit": "µg/mL"},
      {"measurement": "MIC", "setting": "M. fortuitum group; isolate 26, M. fortuitum group, M. porcinum", "result": "≤ 0.06", "unit": "µg/mL"},
      {"measurement": "MIC", "setting": "M. fortuitum group; isolate 27, M. fortuitum group, M. porcinum", "result": 0.12, "unit": "µg/mL"},
      {"measurement": "MIC", "setting": "M. fortuitum group; isolate 28, M. fortuitum group, M. porcinum/M. boenickei", "result": 0.25, "unit": "µg/mL"},
      {"measurement": "MIC", "setting": "M. fortuitum group; isolate 29, M. fortuitum group, M. porcinum/M. boenickei", "result": 0.12, "unit": "µg/mL"},
      {"measurement": "MIC", "setting": "M. fortuitum group; isolate 30, M. fortuitum group, M. porcinum/M. boenickei", "result": "≤ 0.06", "unit": "µg/mL"},
      {"measurement": "MIC", "setting": "M. fortuitum group; isolate 31, M. fortuitum group, M. senegalense", "result": 0.12, "unit": "µg/mL"},
      {"measurement": "MIC", "setting": "M. fortuitum group; isolate 32, M. fortuitum group, M. senegalense", "result": 0.12, "unit": "µg/mL"},
      {"measurement": "MIC", "setting": "M. fortuitum group; isolate 33, M. fortuitum group, M. senegalense", "result": 0.12, "unit": "µg/mL"},
      {"measurement": "MIC", "setting": "M. fortuitum group; isolate 34, M. fortuitum group, M. senegalense", "result": 0.12, "unit": "µg/mL"},
      {"measurement": "MIC", "setting": "M. simiae; isolate 13, Other", "result": 4, "unit": "µg/mL"},
      {"measurement": "MIC", "setting": "M. simiae; isolate 14, Other", "result": 2, "unit": "µg/mL"},
      {"measurement": "MIC", "setting": "M. simiae; isolate 15, Other", "result": 8, "unit": "µg/mL"},
      {"measurement": "MIC", "setting": "M. smegmatis group; isolate 49, M. smegmatis group, M. goodii", "result": "≤ 0.06", "unit": "µg/mL"},
      {"measurement": "MIC", "setting": "M. smegmatis group; isolate 50, M. smegmatis group, M. wolinskyi", "result": 0.25, "unit": "µg/mL"},
      {"measurement": "MIC", "setting": "M. abscessus complex; isolate 1, M. abscessus complex, erm gene type MAB30", "result": 8, "unit": "µg/mL"},
      {"measurement": "MIC", "setting": "M. abscessus complex; isolate 2, M. abscessus complex, erm gene type MAB30", "result": 8, "unit": "µg/mL"},
      {"measurement": "MIC", "setting": "M. abscessus complex; isolate 3, M. abscessus complex, erm gene type MAB30", "result": 16, "unit": "µg/mL"},
      {"measurement": "MIC", "setting": "M. abscessus complex; isolate 4, M. abscessus complex, erm gene type massiliense", "result": 16, "unit": "µg/mL"},
      {"measurement": "MIC", "setting": "M. abscessus complex; isolate 5, M. abscessus complex, erm gene type massiliense/subsp. abs hybrid", "result": 4, "unit": "µg/mL"},
      {"measurement": "MIC", "setting": "M. abscessus complex; isolate 6, M. abscessus complex, erm gene type Type 1 abscessus", "result": 16, "unit": "µg/mL"},
      {"measurement": "MIC", "setting": "M. abscessus complex; isolate 7, M. abscessus complex, erm gene type Type 1 abscessus", "result": 8, "unit": "µg/mL"},
      {"measurement": "MIC", "setting": "M. abscessus complex; isolate 8, M. abscessus complex, erm gene type Type 1 abscessus", "result": 16, "unit": "µg/mL"},
      {"measurement": "MIC", "setting": "M. abscessus complex; isolate 9, M. abscessus complex, erm gene type Type 1 abscessus", "result": 8, "unit": "µg/mL"},
      {"measurement": "MIC", "setting": "M. abscessus complex; isolate 10, M. abscessus complex, erm gene type Type 1 abscessus", "result": 4, "unit": "µg/mL"},
      {"measurement": "MIC", "setting": "M. abscessus complex; isolate 11, M. abscessus complex, erm gene type Type 6 abscessus", "result": 8, "unit": "µg/mL"},
      {"measurement": "MIC", "setting": "M. abscessus complex; isolate 12, M. abscessus complex, erm gene type Type 6 abscessus", "result": 4, "unit": "µg/mL"},
      {"measurement": "MIC", "setting": "M. abscessus complex; isolate 13, M. abscessus complex, erm gene type Type 6 abscessus", "result": 8, "unit": "µg/mL"},
      {"measurement": "MIC", "setting": "M. abscessus complex; isolate 14, M. abscessus complex, erm gene type Type 6 abscessus", "result": 8, "unit": "µg/mL"},
      {"measurement": "MIC", "setting": "M. abscessus complex; isolate 15, M. abscessus complex, erm gene type Type 7 abscessus", "result": 8, "unit": "µg/mL"},
      {"measurement": "MIC", "setting": "M. abscessus complex; isolate 16, M. abscessus complex, erm gene type Type 7 abscessus", "result": 4, "unit": "µg/mL"},
      {"measurement": "MIC", "setting": "M. abscessus complex; isolate 17, M. abscessus complex, erm gene type Type 8 abscessus", "result": 4, "unit": "µg/mL"},
      {"measurement": "MIC", "setting": "M. mucogenium group; isolate 39, M. mucogenicum group, M. mucogenicum", "result": 0.12, "unit": "µg/mL"},
      {"measurement": "MIC", "setting": "M. mucogenium group; isolate 40, M. mucogenicum group, M. mucogenicum", "result": 0.25, "unit": "µg/mL"},
      {"measurement": "MIC", "setting": "M. mucogenium group; isolate 41, M. mucogenicum group, M. mucogenicum", "result": 0.25, "unit": "µg/mL"},
      {"measurement": "MIC", "setting": "M. mucogenium group; isolate 42, M. mucogenicum group, M. mucogenicum", "result": 0.5, "unit": "µg/mL"},
      {"measurement": "MIC", "setting": "M. mucogenium group; isolate 43, M. mucogenicum group, M. phocaicum", "result": 0.25, "unit": "µg/mL"},
      {"measurement": "MIC", "setting": "M. mucogenium group; isolate 44, M. mucogenicum group, M. phocaicum", "result": 0.5, "unit": "µg/mL"},
      {"measurement": "MIC", "setting": "M. mucogenium group; isolate 45, M. mucogenicum group, M. phocaicum", "result": 1, "unit": "µg/mL"},
      {"measurement": "MIC", "setting": "M. mucogenium group; isolate 46, M. mucogenicum group, M. phocaicum", "result": 1, "unit": "µg/mL"},
      {"measurement": "MIC", "setting": "M. mucogenium group; isolate 47, M. mucogenicum group, M. phocaicum", "result": 0.5, "unit": "µg/mL"},
      {"measurement": "MIC", "setting": "M. mucogenium group; isolate 48, M. mucogenicum group, M. phocaicum", "result": 1, "unit": "µg/mL"},
      {"measurement": "MIC", "setting": "M. chimaera; isolate 4, MAC", "result": 4, "unit": "µg/mL"},
      {"measurement": "MIC", "setting": "M. chimaera; isolate 5, MAC", "result": 2, "unit": "µg/mL"},
      {"measurement": "MIC", "setting": "M. immunogenum group; isolate 35, M. immunogenum group", "result": 8, "unit": "µg/mL"},
      {"measurement": "MIC", "setting": "M. immunogenum group; isolate 36, M. immunogenum group", "result": 4, "unit": "µg/mL"},
      {"measurement": "MIC", "setting": "M. immunogenum group; isolate 37, M. immunogenum group", "result": 16, "unit": "µg/mL"},
      {"measurement": "MIC", "setting": "M. immunogenum group; isolate 38, M. immunogenum group", "result": 16, "unit": "µg/mL"},
      {"measurement": "MIC50", "setting": "[2]; read-out: MIC50", "result": 2, "unit": "µg/mL"},
      {"measurement": "MIC90", "setting": "[2]; read-out: MIC90", "result": 8, "unit": "µg/mL"}
    ]},
    {"smiles": "CN(C)[C@@H]1C(=O)C(C(N)=O)=C(O)[C@@]2(O)C(=O)C3=C(O)c4c(O)cccc4[C@@](C)(O)[C@H]3C[C@@H]12", "note": "[tetracycline]", "values": [
      {"measurement": "in vitro activity (in words)", "setting": "M. abscessus", "result": "very low activity"}
    ]}
  ]
}
